Assay results published in article PMC2873112 (Chembiochem : a European journal of chemical biology, 2010).

Key:
Cop6 [1] = target: T1, Cop6 (Coprinopsis cinerea, UniProt A8NCK5, N224D); assay: product profile by GC-MS; format: biochemical; settings: turnover only
Cop6 [2] = target: T1, Cop6; assay: product analysis by chiral GC-MS; format: biochemical; settings: purified mutant; turnover only

T1 sequence (A8NCK5 whole entry N224D): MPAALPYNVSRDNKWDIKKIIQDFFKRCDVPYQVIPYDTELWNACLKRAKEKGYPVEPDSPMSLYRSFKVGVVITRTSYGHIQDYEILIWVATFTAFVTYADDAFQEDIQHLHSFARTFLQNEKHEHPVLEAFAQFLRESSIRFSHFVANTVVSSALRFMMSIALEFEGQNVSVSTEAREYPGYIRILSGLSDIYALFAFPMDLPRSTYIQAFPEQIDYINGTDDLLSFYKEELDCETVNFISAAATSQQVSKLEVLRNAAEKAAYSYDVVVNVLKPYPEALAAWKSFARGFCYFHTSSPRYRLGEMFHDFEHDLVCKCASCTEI

With `CC(C)=CCC/C(C)=C/CC/C(C)=C/COP(=O)(O)OP(=O)(O)O` [(E,E)-FPP] the “product profile by GC-MS” value (Cop6 [1]) was “N224D does not affect the product profile of Cop6 with its normal substrate (E,E)-FPP”.
For `CC(C)=CCC/C(C)=C/CC/C(C)=C\COP(=O)(O)OP(=O)(O)O` [(Z,E)-FPP], the “product analysis by chiral GC-MS” value (Cop6 [2]) was “Mutant Cop6N224D now makes a small amount of an additional compound”.
